Results on 9 molecules are retold here after patent publication US20230089368A1, “POLYAROMATIC UREA DERIVATIVES AND THEIR USE IN THE TREATMENT OF MUSCLE DISEASES” (ANAGENESIS BIOTECHNOLOGIES S.A.S., priority 2019, published 2023).

Assay [1] has as its system satellite-like cells (Pax7-positive cells) in hMP. Nature of the assay: Myotube assay: Pax7-positive (satellite-like) cell quantification. Set-up: key to Pax7% (pool of Pax7-positive cells) / Pax7: −: Depletes the pool of cells, while positively affects the myotubes; +: Maintains or increases the pool of cells, with at least 1 of the highest concentration known to be cytotoxic; ++: Maintains or increases the pool of cells, without any toxicity. Particulars: myotube assay, compounds incubated 3 days. The assay is classed as cell-based, human. The method, boiled down: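 DMD hiPSC-derived muscle progenitors (hMP) proliferated 4 days, then plated on collagen I in K5 medium with 5 μM Y-27632. Compound added at 1.5 nM–30 μM for 3 days at 37° C, then cells fixed and immunostained. Pax7-positive cells counted as percentage of total nuclei, duplicates averaged.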

Assay [2] deals with muscle progenitors (hMP) from DMD hiPSC or WT hiPSC. Nature of the assay: Myotube assay: myogenic activity (total myotube area per well). The conditions noted are these: Homo sapiens, 72 h; myotube assay, compounds incubated 3 days; read-out: MA (normalized Myotube Area, efficacy). Type of assay: cell-based, human. The method, boiled down: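 DMD or WT hiPSC-derived muscle progenitors plated on collagen I in K5 medium with 5 μM Y-27632, treated with compound (1.5 nM–30 μM) for 3 days at 37° C. Cells were fixed, stained for alpha-actinin and imaged for total myotube area per well. EC50 and normalized myotube area (MA) taken from duplicate-averaged data.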

For `CC(C)(C)c1nc(NC(=O)Nc2ccc(Oc3ccnc4[nH]c(=O)cnc34)cc2F)n(-c2ccccc2)n1` [(p), 1-(3-(tert-butyl)-1-phenyl-1H-1,2,4-triazol-5-yl)-3-(2-fluoro-4-((3-oxo-3,4-dihydropyrido[2,3-b]pyrazin-8-yl)oxy)phenyl)urea], the “Pax7% (pool of Pax7-positive cells)” value in assay [1] is reported as “++”. In addition, the Emax in assay [2] is 25 to 50%.
Taken in the same sequence, the figures for `CSc1cc(Oc2ccnc3c2CCC(=O)N3)ccc1NC(=O)Nc1cc(C(C)(C)C)nn1-c1ccc(C)cc1` [(by), 1-(3-(tert-butyl)-1-(p-tolyl)-1H-pyrazol-5-yl)-3-(2-(methylthio)-4-((7-oxo-5,6,7,8-tetrahydro-1,8-naphthyridin-4-yl)oxy)phenyl)urea] were “+” and ≥ 75%.
Taken in the same sequence, the figures for `CSc1cc(Oc2ccnc3[nH]c(=O)cnc23)ccc1NC(=O)Nc1cc(C(C)(C)C)nn1-c1ccc(C#N)cc1` [(cc), 1-(3-(tert-butyl)-1-(4-cyanophenyl)-1H-pyrazol-5-yl)-3-(2-(methylthio)-4-((3-oxo-3,4-dihydropyrido[2,3-b]pyrazin-8-yl)oxy)phenyl)urea] were “+” and ≥ 75%.
Taken in the same sequence, the figures for `CC(C)(C)c1cc(NC(=O)Nc2ccc(Oc3ccnc4[nH]c(=O)cnc34)cc2Cl)n(-c2ccccc2)n1` [(ak), 1-(3-(tert-butyl)-1-phenyl-1H-pyrazol-5-yl)-3-(2-chloro-4-((3-oxo-3,4-dihydropyrido[2,3-b]pyrazin-8-yl)oxy)phenyl)urea] were “+” and ≥ 75%.
On to `CSc1cc(Oc2ccnc3c2CCC(=O)N3)ccc1NC(=O)Nc1cc(C(C)(C)C)nn1-c1ccccc1` [(an), 1-(3-(tert-butyl)-1-phenyl-1H-pyrazol-5-yl)-3-(2-(methylthio)-4-((7-oxo-5,6,7,8-tetrahydro-1,8-naphthyridin-4-yl)oxy)phenyl)urea], for which the “Pax7% (pool of Pax7-positive cells)” value in assay [1] is given as “++”. Besides, the Emax in assay [2] was ≥ 75%.
Taken in the same sequence, the figures for `CC(C)(C)c1cc(NC(=O)Nc2ccc(Oc3ccncc3)cc2F)n(-c2ccccc2)n1` [(ad), 1-(3-(tert-butyl)-1-phenyl-1H-pyrazol-5-yl)-3-(2-fluoro-4-(pyridin-4-yloxy)phenyl)urea] were “++” and 25 to 50%.
Taken in the same sequence, the figures for `CSc1cc(Oc2ccnc3[nH]c(=O)cnc23)ccc1NC(=O)Nc1cc(C(C)(C)C)nn1-c1ccc(C)c(Cl)c1` [(cl), 1-(3-(tert-butyl)-1-(3-chloro-4-methylphenyl)-1H-pyrazol-5-yl)-3-(2-(methylthio)-4-((3-oxo-3,4-dihydropyrido[2,3-b]pyrazin-8-yl)oxy)phenyl)urea] were “+” and ≥ 75%.
Taken in the same sequence, the figures for `CCOC(=O)Nc1cc(Oc2ccc(NC(=O)Nc3cc(C(C)(C)C)on3)c(SC)c2)ccn1` [(di), Ethyl (4-(4-(3-(5-(tert-butyl)isoxazol-3-yl)ureido)-3-(methylthio)phenoxy)pyridin-2-yl)carbamate] were “++” and ≥ 75%.
With `CCOC(=O)Nc1cc(Oc2ccc(NC(=O)Nc3ncc(C(C)(C)C)s3)c(SC)c2)ccn1` [(df), Ethyl (4-(4-(3-(5-(tert-butyl)thiazol-2-yl)ureido)-3-(methylthio)phenoxy)pyridin-2-yl)carbamate], the “Pax7% (pool of Pax7-positive cells)” value in assay [1] is on record as “+”. For the same molecule, the Emax in assay [2] is ≥ 75%.
